Laboratory results as given in US7271165B2, “Rifamycin analogs and uses thereof” (priority 2003, dated 2007).
Values after ≈ are worked out from the molar mass of the structure shown.

What was measured:
[1] = test system: S. aureus; experiment: MIC assay, S. aureus; format: cell-based, Staphylococcus aureus
[2] = test system: E coli; experiment: MIC assay, E coli; format: cell-based
[3] = test system: E. faecalis; experiment: MIC assay, E. faecalis; format: cell-based, Enterococcus faecalis
[4] = test system: H. flu; format: cell-based, H. influenza; settings: H. flu
[5] = test system: S. pneumo.; experiment: MIC assay, S. pneumo.; format: cell-based, Streptococcus pneumoniae

| Structure (SMILES) | MIC (μg/mL) S. aureus [1] [µg/mL] | MIC (μg/mL) E coli [2] [µg/mL] | MIC (μg/mL) E. faecalis [3] [µg/mL] | MIC (μg/mL) H. flu [4] [µg/mL] | MIC (μg/mL) S. pneumo. [5] [µg/mL] |
| --- | --- | --- | --- | --- | --- |
| COC1C=COC2(C)Oc3c(C)c(O)c4c(=O)c(c5sc6cc(N7CCC(N(C)C)CC7)ccc6nc-5c4c3C2=O)NC(=O)C(C)=CC=CC(C)C(O)C(C)C(O)C(C)C(OC(C)=O)C1C (centres unmarked) [Compound 69, 5′-[4-N,N-dimethylamino-1-piperidinyl]benzthiazinorifamycin] | 0.015 (≈ 0.0162 µM) | 4 (≈ 4.31 µM) | 0.5 (≈ 0.539 µM) | 0.5 (≈ 0.539 µM) | 0.00025 (≈ 0.00027 µM) |
| COC1C=COC2(C)Oc3c(C)c(O)c4c(=O)c(c5sc6cc(N7CC(C)N(CC8CC8)CC7C)ccc6nc-5c4c3C2=O)NC(=O)C(C)=CC=CC(C)C(O)C(C)C(O)C(C)C(O)C1C [Compound 70, 25-O-deacetyl-5′-[(2S,5R)-4-(cyclopropylmethyl)-2,5-dimethylpiperazinyl]benzthiazinorifamycin] | 0.03 (≈ 0.0324 µM) | >8 | 1 (≈ 1.08 µM) | 1 (≈ 1.08 µM) | 0.001 (≈ 0.00108 µM) |
| COC1C=COC2(C)Oc3c(C)c(O)c4c(=O)c(c5oc6cc(N7CCC(C)(N(C)C)CC7)cc(O)c6nc-5c4c3C2=O)NC(=O)C(C)=CC=CC(C)C(O)C(C)C(O)C(C)C(OC(C)=O)C1C (centres unmarked) [Compound 71, 3′-hydroxy-5′-[4-methyl-4-N,N-dimethylamino-1-piperidinyl]benzoxazinorifamycin] | 0.008 (≈ 0.0085 µM) | 4 (≈ 4.25 µM) | 0.25 (≈ 0.266 µM) | 0.5 (≈ 0.531 µM) | 0.00012 (≈ 0.000128 µM) |
| COC1C=COC2(C)Oc3c(C)c(O)c4c(=O)c(c5oc6cc(N7CCC(C)(NC(C)=O)CC7)cc(O)c6nc-5c4c3C2=O)NC(=O)C(C)=CC=CC(C)C(O)C(C)C(O)C(C)C(OC(C)=O)C1C (centres unmarked) [Compound 72, 3′-hydroxy-5′-[4-methyl-4-acetylamino-1-piperidinyl]benzoxazinorifamycin] | 0.008 (≈ 0.00838 µM) | >8 | 2 (≈ 2.09 µM) | 0.5 (≈ 0.524 µM) | 0.00025 (≈ 0.000262 µM) |
| COC1C=COC2(C)Oc3c(C)c(O)c4c(=O)c(c5oc6cc(N7CCC(C)(N(C)C)CC7)cc(O)c6nc-5c4c3C2=O)NC(=O)C(C)=CC=CC(C)C(O)C(C)C(O)C(C)C(O)C1C (centres unmarked) [Compound 73, 25-O-deacetyl-3′-hydroxy-5′-[4-methyl-4-N,N-dimethylamino-1-piperidinyl]benzoxazinorifamycin] | 0.002 (≈ 0.00222 µM) | 2 (≈ 2.22 µM) | 0.03 (≈ 0.0334 µM) | 0.12 (≈ 0.133 µM) | 0.00025 (≈ 0.000278 µM) |
| COC1C=COC2(C)Oc3c(C)c(O)c4c(=O)c(c5oc6cc(N7CCC(C)(NC(C)=O)CC7)cc(O)c6nc-5c4c3C2=O)NC(=O)C(C)=CC=CC(C)C(O)C(C)C(O)C(C)C(O)C1C (centres unmarked) [Compound 74, 25-O-deacetyl-3′-hydroxy-5′-[4-methyl-4-acetylamino-1-piperidinyl]benzoxazinorifamycin] | 0.03 (≈ 0.0329 µM) | >8 | 0.5 (≈ 0.548 µM) | 0.12 (≈ 0.131 µM) | 0.001 (≈ 0.0011 µM) |
| COC1C=COC2(C)Oc3c(C)c(O)c4c(=O)c(c5oc6cc(N7CCC(N(C)C)C7)cc(O)c6nc-5c4c3C2=O)NC(=O)C(C)=CC=CC(C)C(O)C(C)C(O)C(C)C(OC(C)=O)C1C [Compound 75, 3′-hydroxy-5′-[(3R)—N,N-dimethylamino-1-pyrrolidinyl]benzoxazinorifamycin] | 0.002 (≈ 0.00219 µM) | 4 (≈ 4.38 µM) | 0.12 (≈ 0.131 µM) | 0.25 (≈ 0.274 µM) | 0.00012 (≈ 0.000131 µM) |
| COC1C=COC2(C)Oc3c(C)c(O)c4c(=O)c(c5sc6cc(N7CCN8CCCC8C7)ccc6nc-5c4c3C2=O)NC(=O)C(C)=CC=CC(C)C(O)C(C)C(O)C(C)C(OC(C)=O)C1C [Compound 76, 5′-[(8aS)octahydropyrrolo [1,2-a]pyrazin-2-yl]benzthiazinorifamycin] | 0.008 (≈ 0.00865 µM) | 4 (≈ 4.32 µM) | 0.5 (≈ 0.54 µM) | 0.25 (≈ 0.27 µM) | 0.00025 (≈ 0.00027 µM) |
| COC1C=COC2(C)Oc3c(C)c(O)c4c(=O)c(c5sc6cc(N7CCN8CCCC8C7)ccc6nc-5c4c3C2=O)NC(=O)C(C)=CC=CC(C)C(O)C(C)C(O)C(C)C(O)C1C [Compound 77, 25-O-deacetyl-5′-[(8aS)octahydropyrrolo[1,2-a]pyrazin-2-yl]benzthiazinorifamycin] | 0.002 (≈ 0.00226 µM) | 2 (≈ 2.26 µM) | 0.25 (≈ 0.283 µM) | 0.12 (≈ 0.136 µM) | 0.00025 (≈ 0.000283 µM) |
| COC1C=COC2(C)Oc3c(C)c(O)c4c(=O)c(c5oc6cc(N7CCN(C)CC7)cc(O)c6nc-5c4c3C2=O)NC(=O)C(C)=CC=CC(C)C(O)C(C)C(O)C(C)C(O)C1C (centres unmarked) [Compound 82] | 0.002 (≈ 0.00233 µM) | 4 (≈ 4.67 µM) | 0.015 (≈ 0.0175 µM) | 0.25 (≈ 0.292 µM) | 0.00012 (≈ 0.00014 µM) |
| COC1C=COC2(C)Oc3c(C)c(O)c4c(=O)c(c5oc6cc(N7CCN8CCCC8C7)cc(O)c6nc-5c4c3C2=O)NC(=O)C(C)=CC=CC(C)C(O)C(C)C(O)C(C)C(O)C1C (centres unmarked) [Compound 83] | 0.002 (≈ 0.00226 µM) | 4 (≈ 4.53 µM) | 0.03 (≈ 0.034 µM) | 0.25 (≈ 0.283 µM) | 0.00025 (≈ 0.000283 µM) |
| COC1C=COC2(C)Oc3c(C)c(O)c4c(=O)c(c5oc6cc(N7CCN8CCCC8C7)cc(O)c6nc-5c4c3C2=O)NC(=O)C(C)=CC=CC(C)C(O)C(C)C(O)C(C)C(O)C1C (centres unmarked) [Compound 84] | 0.004 (≈ 0.00453 µM) | 8 (≈ 9.06 µM) | 0.03 (≈ 0.034 µM) | 0.25 (≈ 0.283 µM) | 0.00025 (≈ 0.000283 µM) |
| COC1C=COC2(C)Oc3c(C)c(O)c4c(=O)c(c5oc6cc(N7CCN(Cc8ccccc8)CC7)cc(O)c6nc-5c4c3C2=O)NC(=O)C(C)=CC=CC(C)C(O)C(C)C(O)C(C)C(O)C1C (centres unmarked) [Compound 86] | 0.03 (≈ 0.0322 µM) | >8 | >8 | 8 (≈ 8.57 µM) | 0.001 (≈ 0.00107 µM) |
| COC1C=COC2(C)Oc3c(C)c(O)c4c(=O)c(c5oc6cc(N7CC(C)NC(C)C7)cc(O)c6nc-5c4c3C2=O)NC(=O)C(C)=CC=CC(C)C(O)C(C)C(O)C(C)C(O)C1C (centres unmarked) [Compound 87] | 0.008 (≈ 0.00918 µM) | 4 (≈ 4.59 µM) | 0.06 (≈ 0.0689 µM) | 0.25 (≈ 0.287 µM) | 0.0005 (≈ 0.000574 µM) |
| CCC1CN(c2cc(O)c3nc4c5c6c7c(C)c(O)c5c(=O)c(c-4oc3c2)NC(=O)C(C)=CC=CC(C)C(O)C(C)C(O)C(C)C(O)C(C)C(OC)C=COC(C)(O7)C6=O)CC(CC)N1 (centres unmarked) [Compound 88] | 0.03 (≈ 0.0334 µM) | 4 (≈ 4.45 µM) | 0.12 (≈ 0.133 µM) | 0.25 (≈ 0.278 µM) | 0.0005 (≈ 0.000556 µM) |
| COCCN1CCN(c2cc(O)c3nc4c5c6c7c(C)c(O)c5c(=O)c(c-4oc3c2)NC(=O)C(C)=CC=CC(C)C(O)C(C)C(O)C(C)C(O)C(C)C(OC)C=COC(C)(O7)C6=O)CC1 (centres unmarked) [Compound 89] | 0.004 (≈ 0.00444 µM) | 8 (≈ 8.88 µM) | 0.12 (≈ 0.133 µM) | 0.25 (≈ 0.277 µM) | 0.00025 (≈ 0.000277 µM) |
| CCC1CN(c2cc(O)c3nc4c5c6c7c(C)c(O)c5c(=O)c(c-4oc3c2)NC(=O)C(C)=CC=CC(C)C(O)C(C)C(O)C(C)C(O)C(C)C(OC)C=COC(C)(O7)C6=O)CC(C)N1 (centres unmarked) [Compound 90] | 0.004 (≈ 0.00452 µM) | 4 (≈ 4.52 µM) | 0.5 (≈ 0.565 µM) | 0.25 (≈ 0.282 µM) | 0.00012 (≈ 0.000136 µM) |
| CCOc1c(N2CCN(CC)CC2)ccc2nc3c4c5c6c(C)c(O)c4c(=O)c(c-3oc12)NC(=O)C(C)=CC=CC(C)C(O)C(C)C(O)C(C)C(O)C(C)C(OC)C=COC(C)(O6)C5=O (centres unmarked) [Compound 91] | 0.008 (≈ 0.0089 µM) | 8 (≈ 8.9 µM) | 0.5 (≈ 0.556 µM) | 0.25 (≈ 0.278 µM) | 0.0005 (≈ 0.000556 µM) |
| CCOc1c(N2CCN(CCOC)CC2)cc(N2CCN(CCOC)CC2)c2nc3c4c5c6c(C)c(O)c4c(=O)c(c-3oc12)NC(=O)C(C)=CC=CC(C)C(O)C(C)C(O)C(C)C(O)C(C)C(OC)C=COC(C)(O6)C5=O (centres unmarked) [Compound 92] | 0.12 (≈ 0.112 µM) | >8 | 8 (≈ 7.47 µM) | 2 (≈ 1.87 µM) | 0.001 (≈ 0.000933 µM) |
| CCOc1c(N2CCN(CCOC)CC2)ccc2nc3c4c5c6c(C)c(O)c4c(=O)c(c-3oc12)NC(=O)C(C)=CC=CC(C)C(O)C(C)C(O)C(C)C(O)C(C)C(OC)C=COC(C)(O6)C5=O (centres unmarked) [Compound 93] | 0.015 (≈ 0.0161 µM) | >8 | 1 (≈ 1.08 µM) | 0.5 (≈ 0.538 µM) | 0.005 (≈ 0.00538 µM) |
| COC1C=COC2(C)Oc3c(C)c(O)c4c(=O)c(c5n(C)c6cc(N7CC(C)NC(C)C7)ccc6nc-5c4c3C2=O)NC(=O)C(C)=CC=CC(C)C(O)C(C)C(O)C(C)C(O)C1C (centres unmarked) [Compound 94] | 1 (≈ 1.15 µM) | >8 | >8 | 4 (≈ 4.61 µM) | 2 (≈ 2.3 µM) |
| COC1C=COC2(C)Oc3c(C)c(O)c4c(=O)c(c5oc6cc(N7CCN(C8CCN(C)CC8)CC7)cc(O)c6nc-5c4c3C2=O)NC(=O)C(C)=CC=CC(C)C(O)C(C)C(O)C(C)C(O)C1C (centres unmarked) [Compound 95] | 0.015 (≈ 0.016 µM) | >8 | 0.5 (≈ 0.532 µM) | 1 (≈ 1.06 µM) | 0.002 (≈ 0.00213 µM) |
